The subject of this test is 598228-144-R-J1-PDC complex spheroids, viability. Kind of test: Anticancer human tumor 598228-144-R-J1-PDC patient-derived serous endometrial adenocarcinoma cell line growth inhibition [CLK]. The note with it: for viability, T/C: stronger effect = lower value. Put shortly: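 Patient-derived tumor cells grown as complex spheroids with HUVEC endothelial cells and mesenchymal stem cells, treated with drug combinations. Concentrations descend in half-log steps from near clinical Cmax, or from 10 microM if Cmax unknown.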

What is called IC50 is the concentration needed to halve the response being measured. For orientation: viability, T/C means the result in the treated group divided by that in the control group, in per cent.
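Note: spheroids exposed to compounds for seven days before readout.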
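Throughout, for viability, T/C: 100% = DMSO vehicle control wells.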

As to `Cn1ncnc1[C@H]1c2n[nH]c(=O)c3cc(F)cc(c23)N[C@@H]1c1ccc(F)cc1` + CNC(=O)c1ccc(Nc2nc(OC3CCCC3)c3c(-c4ccc5nc(C)oc5c4)c[nH]c3n2)c(OC)c1, the IC50 is, setting by setting: (curve of first compound, second compound 0.0316 µM) over 100 nM; (curve of first compound, second compound 0.1 µM) over 100 nM; (curve of first compound, second compound 0.316 µM) over 100 nM; (curve of first compound, second compound 1 µM) over 100 nM; (curve of first compound, second compound 3.16 µM) over 100 nM; (curve of first compound, second compound 10 µM) over 100 nM. For the same molecule, the viability, T/C is, setting by setting: (second compound 0.0316 µM, first compound 0.000316 µM) 111%; (second compound 0.0316 µM, first compound 0.001 µM) 118%; (second compound 0.0316 µM, first compound 0.00316 µM) 122%; (second compound 0.0316 µM, first compound 0.01 µM) 121%; (second compound 0.0316 µM, first compound 0.0316 µM) 114%; (second compound 0.0316 µM, first compound 0.1 µM) 108%. The viability, T/C is 109% (second compound 0.1 µM, first compound 0.000316 µM); 122% (second compound 0.1 µM, first compound 0.001 µM); 120% (second compound 0.1 µM, first compound 0.00316 µM); 121% (second compound 0.1 µM, first compound 0.01 µM); 112% (second compound 0.1 µM, first compound 0.0316 µM); 96.8% (second compound 0.1 µM, first compound 0.1 µM). The viability, T/C is, setting by setting: (second compound 0.316 µM, first compound 0.000316 µM) 114%; (second compound 0.316 µM, first compound 0.001 µM) 119%; (second compound 0.316 µM, first compound 0.00316 µM) 92%; (second compound 0.316 µM, first compound 0.01 µM) 115%; (second compound 0.316 µM, first compound 0.0316 µM) 118%; (second compound 0.316 µM, first compound 0.1 µM) 98.1%. Also, the viability, T/C (second compound 1 µM, first compound 0.000316 µM) was 112%; the viability, T/C (second compound 1 µM, first compound 0.001 µM) was 109%; the viability, T/C (second compound 1 µM, first compound 0.00316 µM) is 107%; the viability, T/C (second compound 1 µM, first compound 0.01 µM) was 117%; the viability, T/C (second compound 1 µM, first compound 0.0316 µM) is 117%; the viability, T/C (second compound 1 µM, first compound 0.1 µM) is 99.3%. Moreover, the viability, T/C (second compound 3.16 µM, first compound 0.000316 µM) was 101%; the viability, T/C (second compound 3.16 µM, first compound 0.001 µM) is 99.2%; the viability, T/C (second compound 3.16 µM, first compound 0.00316 µM) was 99.7%; the viability, T/C (second compound 3.16 µM, first compound 0.01 µM) is 118%; the viability, T/C (second compound 3.16 µM, first compound 0.0316 µM) is 104%; the viability, T/C (second compound 3.16 µM, first compound 0.1 µM) was 105%. Also, the viability, T/C (second compound 10 µM, first compound 0.000316 µM) is 105%; the viability, T/C (second compound 10 µM, first compound 0.001 µM) was 115%; the viability, T/C (second compound 10 µM, first compound 0.00316 µM) is 99.5%; the viability, T/C (second compound 10 µM, first compound 0.01 µM) is 105%; the viability, T/C (second compound 10 µM, first compound 0.0316 µM) was 82.5%; the viability, T/C (second compound 10 µM, first compound 0.1 µM) is 128%.

Regarding `CNC(=O)c1ccc(Nc2nc(OC3CCCC3)c3c(-c4ccc5nc(C)oc5c4)c[nH]c3n2)c(OC)c1`, the viability, T/C is, setting by setting: (compound 0.0316 µM) 89.3% [middle of 4 runs]; (compound 1 µM) 101% [middle of 12 runs]; (compound 3.16 µM) 94.7% [middle of 12 runs]; (compound 10 µM) 101% [middle of 12 runs]. Moreover, the IC50 (compound alone, run of 09/19/2023) was over 10000 nM.

These data come from PubChem BioAssay AID2060614 (Molecular Pharmacology Branch, DTP, NCI, 2025).
